Measurements: patent publication US20130184321A1, “Model Mouse of Attention Deficit Hyperactivity Disorder, Method for Investigating Effects for Preventing and Alleviating Attention Disorder using the Model Mouse, and Method for Treating Attention Disorder by Suppressing T-Type Calcium Channel” (KOREA ADVANCED INSTITUTE OF SCIENCE AND TECHNOLOGY, priority 2010, published 2013)

Tested on: ADHD animal model implanted with cobalt wire
Assay: Changes in brain wave (EEG spikes) of ADHD animal model by T-type calcium channel blocker
Type: in vivo, mouse
Details: cobalt wire implanted 7~9 days earlier, brain wave observed for one hour; for spikes observed in the frontal lobe, after vs before treatment: P<0.05
Method: Particularly, to construct the ADHD mouse model, 0.2% avertin in 20 mg/ml of tribromoethanol was administered to the mouse by intraperitoneal injection (i.p.) to anesthetize it. The head of the mouse (B6 mouse at 10˜20 weeks) was fixed on stereotaxic (David Kopf Instruments, Germany) and then cobalt wire (Alfa Aesar) was inserted therein by using holder, a part of stereotaxic. Cobalt wire (Alfa Aesar) of 500 μm in the diameter was inserted radially (vertical direction to the cortical surface) in the location of anteroposteriorally 2.6 mm, laterally 1.8 mm, and ventrally 1.3 mm in the right dorsolateral frontal lobe.
For the record of EEG, epidural electrode was inserted in the right frontal lobe where the cobalt wire was inserted. Other electrodes were inserted in the left frontal lobe and temporal lobe. Particularly, the location for the insertion in the right frontal lobe was anteroposteriorally 2.8 mm and laterally 0.8 mm and the location in the left frontal lobe was anteroposteriorally 2.8 mm and laterally 0.8 mm. […]
After three days of recovery, EEG signals and video images were recorded for 30 days. […]
Particularly, 150 mg/kg of ethosuximide (Sigma-Aldrich, USA) was administered in the abdominal cavity of the ADHD animal model implanted with cobalt wire 7˜9 days earlier, followed by observation of the changes in brain wave for one hour. The mice were placed in the test room having square bottom where they could move freely and brain waves were being recorded from 30 minutes before the ethosuximide administration. The number of spikes was measured before and after the treatment of ethosuximide.
60 mg/kg of zonisamide (Sigma-Aldrich, USA) and 100 mg/kg of phyenytoin (Sigma-Aldrich, USA) were administered respectively in the abdominal cavity of the ADHD animal model implanted with cobalt wire 7˜9 days earlier, followed by observation of the changes in brain wave for one hour. The mice were placed in the test room having square bottom where they could move freely and brain waves were being recorded from 30 minutes before the ethosuximide administration. […]

CCC1(C)CC(=O)NC1=O (stereo not drawn) [ethosuximide]
number of spikes observed in the frontal lobe, after vs before treatment (150 mg/kg in the abdominal cavity): significantly reduced

O=C1NC(=O)C(c2ccccc2)(c2ccccc2)N1 [phyenytoin]
spikes observed in the frontal lobe, after vs before treatment (100 mg/kg in the abdominal cavity): significantly reduced

NS(=O)(=O)Cc1noc2ccccc12 [zonisamide]
spikes observed in the frontal lobe, after vs before treatment (60 mg/kg in the abdominal cavity): significantly reduced
